Read-outs that look alike come from different tables or passages of the source.
What was measured:
Trichomonas foetus = assay: Infection tests with Trichomonas foetus in mice; type: in vivo; settings: for % of Animals Dying After Infection (Mean Value): stomach tube, 3 successive days, NMRI mice
in vivo = settings: mouse
Klebs. pneum. PCI 602 = assay: microbe, parasite or virus in culture; type: cell-based; settings: for MBC: read-out: Concentration from which subcultures no longer started; for MIC: read-out: Minimum inhibiting concentration (MHK), series dilution test
E. coli 6106 = assay: microbe, parasite or virus in culture; type: cell-based; settings: for MIC: read-out: Minimum inhibiting concentration (MHK), series dilution test
Ps. aeruginosa 2 = assay: microbe, parasite or virus in culture; type: cell-based; settings: for MIC: read-out: Minimum inhibiting concentration (MHK), series dilution test
Staph. aur. SG 511 = assay: microbe, parasite or virus in culture; type: cell-based; settings: for MIC: read-out: Minimum inhibiting concentration (MHK), series dilution test
Staph. aur. PCI 1203 = assay: microbe, parasite or virus in culture; type: cell-based; settings: for MBC: read-out: Concentration from which subcultures no longer started; for MIC: read-out: Minimum inhibiting concentration (MHK), series dilution test
streptococci group A 807 = assay: microbe, parasite or virus in culture; type: cell-based; settings: for MIC: read-out: Minimum inhibiting concentration (MHK), series dilution test
streptoc. group B 779 = assay: microbe, parasite or virus in culture; type: cell-based; settings: for MBC: read-out: Concentration from which subcultures no longer started; for MIC: read-out: Minimum inhibiting concentration (MHK), series dilution test
streptococci group C 805 = assay: microbe, parasite or virus in culture; type: cell-based; settings: for MBC: read-out: Concentration from which subcultures no longer started; for MIC: read-out: Minimum inhibiting concentration (MHK), series dilution test
enterococci = assay: microbe, parasite or virus in culture; type: cell-based; settings: for MIC: read-out: Minimum inhibiting concentration (MHK), series dilution test
C. Albicans 49 = assay: microbe, parasite or virus in culture; type: cell-based; settings: Candida albicans; for MIC: read-out: Minimum inhibiting concentration (MHK), series dilution test
C. Paracrusei 45 = assay: microbe, parasite or virus in culture; type: cell-based; settings: for MBC: read-out: Concentration from which subcultures no longer started; for MIC: read-out: Minimum inhibiting concentration (MHK), series dilution test
[1] = system: 9 bacteria and 2 yeast strains; assay: In vitro tests with 9 bacteria and 2 yeast strains (summary); type: cell-based; settings: even with the high concentration of 500 μg/ml
[2] = system: Serratia marcescens strain HY/a 21
S. typhimurium G 46 = settings: in vivo
[3] = subcultures applied after 48 h, read after 24 h
[4] = 24 h, read-out: Concentration from which subcultures no longer started, subcultures applied after 24 h, read after 24 h
[5] = 48 h, read-out: Concentration from which subcultures no longer started, subcultures applied after 48 h, read after 48 h
[6] = read-out: Concentration from which subcultures no longer started, subcultures applied after 24 h, read after 48 h
[7] = read-out: Concentration from which subcultures no longer started, subcultures applied after 48 h, read after 24 h

Cc1ncc([N+](=O)[O-])n1CCO [Metronidazol, reference compound]
80%: % of Animals Dying After Infection (Mean Value) (Trichomonas foetus; 12.5 mg/kg)
4%: % of Animals Dying After Infection (Mean Value) (Trichomonas foetus; 100 mg/kg)
10%: animals survived / survival rate (Trichomonas foetus; dose of 6.25 mg/kg, mice infected with T. foetus)
> 2000 mg/kg: LD50 (in vivo)
70%: % of Animals Dying After Infection (Mean Value) (Trichomonas foetus; 25 mg/kg)
90%: % of Animals Dying After Infection (Mean Value) (Trichomonas foetus; 6.25 mg/kg)
3.1 × 10^-6: Mutation frequency [2]
5.9 × 10^2 colonies/ml: Mutants, Test [2]
4.6 . 10^-7: Mutation frequency in test animals (S. typhimurium G 46)
0%: % of Animals Dying After Infection (Mean Value) (Trichomonas foetus; 75 mg/kg)
> 500 µg/mL: MBC (Klebs. pneum. PCI 602; 24 h) | MIC (Klebs. pneum. PCI 602; 24 h) | MBC (Klebs. pneum. PCI 602; 48 h) | MIC (Klebs. pneum. PCI 602; 48 h) | MBC (Klebs. pneum. PCI 602) | Concentration from which subcultures no longer started (Klebs. pneum. PCI 602; [3]) | MBC (E. coli 6106; Escherichia coli, 6106, 24 h, read-out: Concentration from which subcultures no longer started) | MIC (E. coli 6106; Escherichia coli, 6106, 24 h) | MBC (E. coli 6106; Escherichia coli, 6106, 48 h, read-out: Concentration from which subcultures no longer started) | MIC (E. coli 6106; Escherichia coli, 6106, 48 h) | MBC (E. coli 6106; Escherichia coli, 6106, read-out: Concentration from which subcultures no longer started) | Concentration from which subcultures no longer started (E. coli 6106; [3]) | MBC (Ps. aeruginosa 2; Pseudomonas aeruginosa, 2, 24 h, read-out: Concentration from which subcultures no longer started) | MIC (Ps. aeruginosa 2; Pseudomonas aeruginosa, 2, 24 h) | MBC (Ps. aeruginosa 2; Pseudomonas aeruginosa, 2, 48 h, read-out: Concentration from which subcultures no longer started) | MIC (Ps. aeruginosa 2; Pseudomonas aeruginosa, 2, 48 h) | MBC (Ps. aeruginosa 2; Pseudomonas aeruginosa, 2, read-out: Concentration from which subcultures no longer started) | Concentration from which subcultures no longer started (Ps. aeruginosa 2; [3]) | MBC (Staph. aur. SG 511; [4]) | MIC (Staph. aur. SG 511; 24 h) | MBC (Staph. aur. SG 511; [5]) | MIC (Staph. aur. SG 511; 48 h) | MBC (Staph. aur. SG 511; [6]) | MBC (Staph. aur. SG 511; [7]) | MBC (Staph. aur. PCI 1203; 24 h) | MIC (Staph. aur. PCI 1203; 24 h) | MBC (Staph. aur. PCI 1203; 48 h) | MIC (Staph. aur. PCI 1203; 48 h) | MBC (Staph. aur. PCI 1203) | Concentration from which subcultures no longer started (Staph. aur. PCI 1203; [3]) | MBC (streptococci group A 807; [4]) | MIC (streptococci group A 807; 24 h) | MBC (streptococci group A 807; [5]) | MIC (streptococci group A 807; 48 h) | MBC (streptococci group A 807; [6]) | MBC (streptococci group A 807; [7]) | MBC (streptoc. group B 779; 24 h) | MIC (streptoc. group B 779; 24 h) | MBC (streptoc. group B 779; 48 h) | MIC (streptoc. group B 779; 48 h) | MBC (streptoc. group B 779) | Concentration from which subcultures no longer started (streptoc. group B 779; [3]) | MBC (streptococci group C 805; 24 h) | MIC (streptococci group C 805; 24 h) | MBC (streptococci group C 805; 48 h) | MIC (streptococci group C 805; 48 h) | MBC (streptococci group C 805) | Concentration from which subcultures no longer started (streptococci group C 805; [3]) | MBC (enterococci; [4]) | MIC (enterococci; 24 h) | MBC (enterococci; [5]) | MIC (enterococci; 48 h) | MBC (enterococci; [6]) | MBC (enterococci; [7]) | MBC (C. Albicans 49; [4]) | MIC (C. Albicans 49; 24 h) | MBC (C. Albicans 49; [5]) | MIC (C. Albicans 49; 48 h) | MBC (C. Albicans 49; [6]) | MBC (C. Albicans 49; [7]) | MBC (C. Paracrusei 45; 24 h) | MIC (C. Paracrusei 45; 24 h) | MBC (C. Paracrusei 45; 48 h) | MIC (C. Paracrusei 45; 48 h) | MBC (C. Paracrusei 45) | Concentration from which subcultures no longer started (C. Paracrusei 45; [3])
15%: % of Animals Dying After Infection (Mean Value) (Trichomonas foetus; 50 mg/kg)
ineffective: in vitro antibacterial/antiyeast effect (in words) [1]

From US4051253A, “Microbicidal nitrofuryl compounds” (Byk Gulden Lomberg Chemische Fabrik GmbH, priority 1974, dated 1977)
